Columns and labels:
[1] = test system: THP1-Blue ISG cells (IFN-β secretion); experiment: Human interferon-β induction assay; type: cell-based; settings: total cumulative IFN-β induction over the dose range tested (0.78 to 50 uM) in THP-1 cells after a 24 hour exposure
Method: THP1-Blue ISG cells are used to measure the secretion of IFN-β into the culture supernatant following STING pathway activation. To run the assay, anti-IFN-β capture antibodies were coated on […] well MultiArray plates (Mesoscale Discovery). After a one hour incubation, plates were washed and 50 μL supernatant from the STING human cell reporter assay plates or IFN-β standards were mixed with 20 μL Sulfotag-conjugated detection antibody in the coated plates. Plates were incubated, shaking for 2 h, washed, and read buffer was applied. Electrochemiluminescence was measured on the SectorImager.

[2] = test system: CT26 colon carcinoma tumor; experiment: STING in vivo activity, mouse CT26 tumor model; settings: 0.05 mg intratumorally every three days, three doses, 8 mice per group; for In vivo activity (% TGI): CT26 tumors in Balb/c mice
Method: For all studies, female Balb/c mice were obtained from Charles River Labs (Wilmington, Mass.) and used when they were 6-8 weeks of age and weighed approximately 20 g. All animals were allowed to acclimate and recover from any shipping-related stress for a minimum of 5 days prior to experimental use. Reverse osmosis chlorinated water and irradiated food (Laboratory Autoclavable Rodent Diet 5010, Lab Diet) were provided ad libitum, and the animals were maintained on a 12 h light and dark cycle. Cages and bedding were autoclaved before use and changed weekly. All experiments were carried out in accordance with The Guide for the Care and Use of Laboratory Animals and were approved by the Institutional Animal Care and Use Committee of Janssen R & D, Spring House, Pa. Each experimental group contained 8 mice. In vivo efficacy in a mouse CT26 tumor model was determined by implanting 500,000 CT26 colon carcinoma tumor cells subcutaneously into Balb/c mice and allowing tumors to establish to 100-300 mm^3. Compounds were injected intratumorally formulated in phosphate buffered saline in a volume of 0.1 mL Per injection. Mice were administered 0.05 mg every three days for a total of three doses. Efficacy was measured as the percent tumor growth inhibition (TGI) calculated by the reduction in size of the Treated tumor volume (T) over the Control tumor volume (C) according to the following formula. ((C−T)/(C))*100 when all control animals were still on study. Cures were defined as the number of animals with no measurable tumor detected 10 tumor volume doubling times (TVDT) after the last dose was administered.

[3] = test system: human STING pathway (THP1-ISG cells); experiment: STING human cell reporter assay; type: cell-based; settings: Homo sapiens, IRF-inducible SEAP reporter, 24 h, means of at least three values
Method: Agonism of the human STING pathway is assessed in THP1-ISG cells (Invivogen, cat #thp-isg) derived from human THP1 monocyte cell line by stable integration of an interferon regulatory factor (IRF)-inducible SEAP reporter construct. THP1-Blue ISG cells express a secreted embryonic alkaline phosphatase (SEAP) reporter gene under the control of an ISG54 minimal promoter in conjunction with five interferon (IFN)-stimulated response elements. As a result, THP1-Blue ISG cells allow the monitoring of IRF activation by determining the activity of SEAP. The levels of IRF-induced SEAP in the cell culture supernatant are readily assessed with alkaline phosphatase detection medium, a SEAP detection reagent. These cells are resistant to Zeocin. 2′3′cGAMP was used as a positive control in this assay. To run the assay, 60,000 cells were dispensed in 30 μL/well of a white, opaque bottom tissue culture treated 384-well plate.
Test compounds were added in a volume of 10 μL (1% DMSO final concentration). Compounds are initially prepared in 100% DMSO, spotted on an compound dilution plate and then diluted in media prior to transfer. The assay was incubated for 24 h at 37° C., 5% CO2 then plates were centrifuged at 1200 rpm (120×g) for 5 min. After final incubation, 90 μL of alkaline phosphatase detection medium-substrate was added to each well of a new 384-well clear plate and 10 μL of the cell supernatant was transferred from the assay plate to the new alkaline phosphatase detection medium-plate using a Biomek FX and mixed 4 times. Plates were incubated at RT for 20 min then absorbance at 655 nm was determined on the Tecan Safire2.

[4] = target: T1, human STING (E. coli produced truncated STING protein) (Homo sapiens, UniProt Q86WV6, H232R); experiment: STING SPR binding assay; settings: steady state affinity, 1:1 binding model, 25° C.
T1 construct: contains residues 139-379 of Q86WV6 with an R at position 232 (H232R); HIS tag (N, cleaved yes); made in house; host or cells: E. coli
T1 sequence (Q86WV6 139-379 H232R): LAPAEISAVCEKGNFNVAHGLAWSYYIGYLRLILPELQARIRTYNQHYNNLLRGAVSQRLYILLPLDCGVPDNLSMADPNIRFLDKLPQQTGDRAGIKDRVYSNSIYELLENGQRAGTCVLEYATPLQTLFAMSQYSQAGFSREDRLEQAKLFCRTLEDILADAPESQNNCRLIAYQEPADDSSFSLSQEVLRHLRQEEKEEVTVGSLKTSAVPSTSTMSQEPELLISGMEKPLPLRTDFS
Method: Compounds were analyzed on an S200 biacore SPR instrument (GE Healthcare). E. coli produced truncated STING protein was immobilized on a series S streptavidin chip via biotin capture (GE Healthcare #BR100531) with. […] Steady state affinity and kinetic evaluations were carried out using 1:1 binding model (STING was treated as a dimer). Run parameters were as follows: 60 sec on, 300 sec off for the IFM compounds, cyclic-di-GMP (60 sec on/60 sec off), thiol isomer 1 (60 sec on/300 sec off) and cGAMP (60 sec on/1200 sec off) with a flow rate of 50 μL/min and data collection at 40 Hz at 25° C.

[5] = target: human STING (biotinylated STING protein, residues 139-379 of Q86WV6, H232R) (Homo sapiens, UniProt Q86WV6, H232R); experiment: STING SPA binding assay
Chain of human STING (biotinylated STING protein, residues 139-379 of Q86WV6, H232R) (Q86WV6 139-379 H232R, one chain of several): as the sequence (Q86WV6 139-379 H232R) above
Method: The HIS tag is cleaved after purification and prior to biotinylation.
Test compounds (80 nL) were added with an acoustic dispenser (EDC Biosystems) in 100% DMSO for a final assay concentration of 1% DMSO. Plates were centrifuged for 1 min and incubated for 60 min at room temperature. […] Plates were dark adapted for 2 h and read on a ViewLux (Perkin Elmer) for 12 min per plate.

Row | EC50 [3] | Kd [4] | IC50 [5] | SMILES | human IFN-β (ranking value) [1] | In vivo activity (% TGI) [2] | In vivo activity (cures) ([2]; number of animals with no measurable tumor 10 tumor volume doubling times after the last dose)
1 | 77 nM | 1.2 nM | 4.6 nM | CO[C@H]1[C@H]2OS(=O)(=O)NC[C@H]3O[C@@H](n4cnc5c(N)ncnc54)[C@H](F)[C@@H]3OP(=O)(O)OC[C@H]1O[C@H]2n1cnc2c(=O)[nH]c(N)nc21 [Compound 1] | 7930 pg/mL | 108.9% | 6
2 | 100 nM | 3480 nM | 29200 nM | CO[C@H]1[C@H]2OP(=O)(O)OC[C@@]34CO[C@@H]([C@H](n5cnc6c(N)ncnc65)O3)[C@@H]4OS(=O)(=O)NC[C@H]1O[C@H]2n1cnc2c(=O)[nH]c(N)nc21 [Compound 25] | 6595 pg/mL | 88.9% | –
